Data from BindingDB's records for doi:10.1021/jm060168g (Wyeth Research, 2006).

Molecular target: Huh7 (Homo sapiens)
Assay: Cytotoxicity against human Huh7 cell line containing HCV genotype 1b replicon

Q: With `O=C(O)[C@@H]1CCCN1S(=O)(=O)c1cc(Cl)c(Cl)c(Cl)c1O` [(S)-1-(3,4,5-trichloro-2-hydroxyphenylsulfonyl)pyrrolidine-2-carboxylic acid] as the compound, how does the IC50 read?
A: The IC50 was greater than 100 µM.
